Experimental data from US20210315841A1, “CYCLOBENZAPRINE TREATMENT FOR SEXUAL DYSFUNCTION” (TONIX PHARMACEUTICALS HOLDING CORP., priority 2020, published 2021).
Counter-ions that a name gives are not always drawn.

Legend:
[1] = system: females with predominantly civilian PTSD; settings: female completers, 5.6 mg dose (N=58) vs placebo (N=55), 12 weeks
Description: (§1) Three randomized, placebo-controlled and double-blind clinical trials of the above described 5.6 mg cyclobenzaprine-HCl sublingual formulation (2×2.8 mg tablets) were performed, a Phase 2 study and a Phase 3 study in military-related PTSD, and a Phase 3 study in predominantly civilian PTSD. […] The present retrospective analysis examined the activity of the cyclobenzaprine-HCl sublingual formulation on the Changes in Sexual Functioning Questionnaire short form (CSFQ-14) in the two Phase 3 studies.
(§2) In the Phase 3 study in predominantly civilian PTSD, the inclusion criteria were broadened to include civilian participants with current PTSD, as determined by the CAPS-5. Accordingly, this study included 94% civilian trauma with a minimum baseline severity score of >33 on the CAPS-5. […] Thus, analyses were conducted on the interim analysis sample of 252 participants in the military Phase 3 study (89% male [n=225 M; n=27 F]; 100% military PTSD) and […] subjects in the civilian Phase 3 study (79% female [n=129 F; n=34 M]; 94% civilian PTSD).
(§3) The CSFQ-14 is a validated 14-item measure (Keller, McGarvey, Clayton, 2006) that has male and female versions which were analyzed separately. In addition to a total sexual functioning score, there are five sub-scales: desire/frequency, desire/interest, arousal/excitement, orgasm/complete, and pleasure. The items range on 5-point Likert scale from (never) to (every day). Higher scores reflect greater levels of sexual functioning.

[2] = system: participants with military-related PTSD
Description: (§4) Methods: In this 12-week, multicenter, adaptive design, randomized controlled fixed-dose trial, 5.6 mg cyclobenzaprine-HCl (2×2.8 mg sublingual tablets, comprising a 75%±2% cyclobenzaprine-HCl and 25%±2% mannitol eutectic and a potassium phosphate dibasic anhydrous basifying agent) taken daily at bedtime was compared to placebo for the treatment of PTSD at 45 U.S. sites. […] A pre-planned interim analysis was conducted when about half the originally planned sample of 550 participants had outcome data.
(§5) The modified intention-to-treat (mITT) population, which included all randomized subjects with at least one post-baseline CAPS-5, included 125 participants treated with 5.6 mg dose per day the above cyclobenzaprine-HCl sublingual formulation and 127 participants on placebo were studied.

[3] = system: females with military-related PTSD; settings: female subgroup (10 active, 17 placebo), 5.6 mg per day sublingual, after 12 weeks of treatment
Description: as §4, §5

[4] = system: participants with military-related PTSD; settings: Phase 2 study, drug and placebo groups
Description: as §1

participants with PTSD [5] = settings: 5.6 mg dose, all three trials (Phase 2 and two Phase 3)
Description: as §1

[6] = system: females with military-related PTSD; settings: 5.6 mg dose (N=8) vs placebo (N=16), 12 weeks
Description: as §4, §5
Sexual functioning was measured by Changes in Sexual Functioning Questionnaire short-form (CSFQ-14) which is a validated 14-item measure (Keller, McGarvey, Clayton, 2006). Parallel gender-specific versions are administered to males (CSFQ-14-M) and females (CSFQ-14-F), and each sex was analyzed separately. In addition to a total sexual functioning score, there are five sub-scales: desire/frequency, desire/interest, arousal/excitement, orgasm/complete, and pleasure. The scales range from (never) to (every day) and higher scores reflect greater levels of sexual functioning.
as §2, §3

participants with PTSD [7] = settings: 5.6 mg sublingual dose, both Phase 3 studies
Description: as §1, §2

[8] = 5.6 mg sublingual daily, military Phase 3 study

Which “CSFQ-14-F arousal/excitement subscale, Hedges' g effect size vs placebo” value [1] does the source give for `CN(C)CCC=C1c2ccccc2C=Cc2ccccc21` [cyclobenzaprine-HCl] here?
Its value is 0.33.

And the “CSFQ-14-F desire/frequency subscale, Hedges' g effect size vs placebo” value [1]?
Its value is 0.21.

And the “CSFQ-14-F desire/interest subscale, Hedges' g effect size vs placebo” value [1]?
The value was 0.23.

What about the “CSFQ-14-F orgasm/completion subscale, Hedges' g effect size vs placebo” value [1] of the same molecule?
The value was 0.29.

And the “CSFQ-14-F pleasure subscale, Hedges' g effect size vs placebo” value [1]?
Its value is 0.19.

And the “CSFQ-14-F total score, Hedges' g effect size vs placebo” value ([1]; p=0.07)?
The value was 0.37.

What about the “participants with at least one AE leading to study discontinuation” value ([2]; 5.6 mg dose group, military Phase 3 study (placebo: two)) of the same molecule?
The value was 8 participants.

And the “duration of oral hypoaesthesia (tongue/mouth numbness), the most frequent AE, post administration” value ([2]; 5.6 mg sublingual daily at bedtime, military Phase 3 study, generally transient)?
Its value is under 60 min.

And the “severity of oral hypoaesthesia (most frequent AE)” value [2, 8]?
The value was “never rated as severe”.

And the “severity of somnolence (most common systemic AE)” value [2, 8]?
Its value is “never rated as severe”.

And the “observed mean improvement in CAPS-5 over placebo” value [3]?
The value was −9.1 units.

What about the “rates of adverse events related to sexual function” value [4] of the same molecule?
The value was “very low rates”.

What about the “activity on clinician- and patient-rated global PTSD symptoms (CGI and PGIC)” value (participants with PTSD [5]) of the same molecule?
Its value is “encouraging activity”.

What about the “CSFQ-14-F arousal/excitement subscale, Hedges' g effect size vs placebo” value [6] of the same molecule?
The value was 0.55.

What about the “CSFQ-14-F desire/frequency subscale, Hedges' g effect size vs placebo” value [6] of the same molecule?
Its value is 0.46.

What about the “CSFQ-14-F desire/interest subscale, Hedges' g effect size vs placebo” value [6] of the same molecule?
Its value is 0.63.

What about the “CSFQ-14-F orgasm/completion scale, effect vs placebo” value [6] of the same molecule?
The value was “No effect”.

And the “CSFQ-14-F pleasure subscale, Hedges' g effect size vs placebo” value [6]?
Its value is 0.54.

And the “CSFQ-14-F total score, Hedges' g effect size vs placebo” value [6]?
Its value is 0.49.

And the “severity of oral hypoaesthesia (most frequent AE)” value (participants with PTSD [7])?
Its value is “never rated as severe”.

What about the “severity of somnolence (most common systemic AE)” value (participants with PTSD [7]) of the same molecule?
The value was “never rated as severe”.

And the “duration of oral hypoaesthesia (tongue/mouth numbness), the most frequent AE, post administration” value (participants with PTSD [7]; generally transient)?
Its value is under 60 min.
